What is called IC50 is the concentration that gives 50% inhibition. What is called AUC is the area under the concentration-time curve, a measure of exposure. Read a low AUC as low exposure. What is called Cmax is the highest concentration seen after dosing. The half-life is the time needed for the level to fall by half in the phase considered. The bioavailability is dose-corrected exposure relative to a reference, in per cent. Low readings indicate poor availability, high ones good availability.

Read-outs that look alike come from different tables or passages of the source.

In one data set the target is KRAS^G12D/cRAF (Homo sapiens, UniProt P01116, G12D). Briefly: KRAS G12D/cRAF binding test (Alphalisa). Particulars: His-tagged KRAS G12D with GMPPNP, GST-tagged cRAF.
For another data set, the system named is HPAC. Briefly: Anti-proliferative 2D CTG assay, HPAC. It is filed as cell-based. Particulars: Homo sapiens, 96 h, HPAC cells, 4 days incubation, read-out: HPAC cell IC50. The procedure: (§1) 1.1 Day 0 Cell Culture and Plating
(§2) Cells in a logarithmic growth phase were harvested and the cells were counted by using a […]. Cell viability was tested by using a trypan blue exclusion method to ensure that cell viability was above 90%. The cell concentration was adjusted to the desired final density, and 90 μL of cell suspension was added to a 96-well plate, then the cells were incubated overnight at 37° C., 5% CO2 and 95% humidity.
(§3) 10 μL PBS was added to each well of the TO plate containing cells. The CTG reagent was thawed and the plate was equilibrated to room temperature for 30 minutes. The CTG solution of 50 µL/well was added to each well. The cells were lysed by shaking on an orbital shaker for 5 minutes. The plate was left at room temperature for 20 minutes to stabilize the luminescence signal. The TO fluorescence signal value was read.
(§4) From the 10 mM stock solution, with a ratio of 1:5, 9-point serial dilutions were performed. The 10× medium containing the compound was transferred into corresponding wells of the 96 wells. The final maximum compound concentration was […] and the final DMSO concentration was 0.1%. The 96-well plate was placed in a 37° C. incubator and incubated for 4 days.
(§5) 50 μL/well of detection reagent (CTG) was added to the cells, and the signal was read in an Envision machine.
(§6) The percent inhibition (%) at each compound concentration was calculated from the signal in the HPE and ZPE control wells and the fluorescence signal in the individual compound wells included in each assay plate. […] The compound concentration required for inhibitory concentration at 50% (IC50) was determined using a four-parameter logarithmic dose-response equation by testing the concentration of the compound and the inhibition percentage value. The endpoint value (IC50) of the reference compound was assessed in each experiment as a quality control measure. If the endpoint value is within three times the expected value, the experiment may be considered acceptable.

Another data set concerns LS513. The data set can be described thus: Anti-proliferative 2D CTG assay, LS513. Format: cell-based. Particulars: Homo sapiens, LS-513, 96 h, LS513 cells, 4 days incubation, read-out: LS513 cell IC50. The procedure:
as §1, §2, §3, §4, §5, §6

The subject of another data set is AsPC-1. The data set can be described thus: Anti-proliferative 2D CTG assay, AsPC-1. The following applies: AsPC-1 cells, 4 days incubation, read-out: AsPC-1 cell IC50. Format: cell-based.
The next data set deals with AGS. The data set can be described thus: Anti-proliferative 2D CTG assay, AGS. Format: cell-based. Particulars: AGS cells, 4 days incubation, read-out: AGS cell IC50.
Data set [1] in a line: Pharmacokinetic experiment in mice (single PO or IV administration). The following applies: male, ICR, mouse, plasma.
Source text: (§7) The purpose of this trial is to study the pharmacokinetic behavior of some compounds of the present invention, and the administration method is: single oral administration (PO) or intravenous administration (IV) to ICR mice.
(§8) ICR mice male N=9 original source: Shanghai Sippr-Bk Lab Animal Co., Ltd.
(§9) The compounds were weighed and dissolved in the corresponding solution (0.5% CMC+1% tween water solution or 10% PG+10% Solutol®+80% pH3 citrate buffer). The mixture was then shaken well and sonicated to prepare a 1 mg/mL stock solution. Nine mice were orally administered at a dose of 10 mg/kg or intravenously administered at a dose of 2 mg/kg after an overnight fast.
(§10) About 90 μL of blood was collected via the submandibular vein per time point, heparin sodium anticoagulant was added, the sample was placed on ice after collection, and plasma was centrifuged within 1 hour (centrifugation conditions: 8,000 rpm, 6 minutes, 2-8° C.). The blood collection timepoints were 0, 0.25, 0.5, 1, 2, 4, 6, 8 and 24 h. The samples were stored in a −20° C. refrigerator.
(§11) The plasma sample was 40 μL, 160 μL of ice-cold acetonitrile containing internal standard was added, vortexed for 3 minutes, and centrifuged at 11,000 rpm for 5 minutes. 100 μL of the supernatant was taken and added to 100 μL of water, 5 μL of the sample was taken and injected into LC/MS/MS for analysis.
Another data set can be described thus: in vivo. The following applies: male, ICR, mouse.

KRAS^G12D/cRAF, sequence (P01116 1-188 isoform P01116-2 G12D): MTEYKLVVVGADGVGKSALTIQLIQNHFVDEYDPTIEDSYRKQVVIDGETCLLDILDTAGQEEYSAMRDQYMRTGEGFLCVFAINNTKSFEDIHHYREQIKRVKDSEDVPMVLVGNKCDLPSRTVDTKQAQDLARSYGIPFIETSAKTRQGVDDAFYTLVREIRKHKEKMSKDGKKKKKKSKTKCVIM
Source text for in vivo: as §7, §8, §9, §10, §11

For `[2H]C([2H])([2H])OC[C@@]12CC[C@@H](CN(c3nc(OC[C@@]45CCCN4C/C(=C\F)C5)nc4c(F)c(-c5cc(O)cc6ccc(F)c(C#C)c56)ncc34)C1)N2` [Example 62, 5-ethynyl-6-fluoro-4-(8-fluoro-2-(((S,Z)-2-(fluoromethylene)tetrahydro-1H-pyrrolizin-7a(5H)-yl)methoxy)-4-((1R,5S)-1-((methoxy-d3)methyl)-3,8-diazabicyclo[3.2.1]octan-3-yl)pyrido[4,3-d]pyrimidin-7-yl) naphthalen-2-ol], the IC50 turned out to be 5.1 nM on KRAS^G12D/cRAF; 9.7 nM in the data set with HPAC; 4.9 nM with LS513; 19.8 nM in the data set on AsPC-1; 1.5 nM with AGS. The AUC in data set [1] (iv, 2 mg/kg) is 849 ng·h/mL; in data set [1] (po, 10 mg/kg), 619 ng·h/mL. Further, the Cmax in data set [1] (iv, 2 mg/kg) stood at 764 ng/mL; in data set [1] (po, 10 mg/kg) it was 224 ng/mL. Further, the half-life in data set [1] (iv, 2 mg/kg) is 294 min; in data set [1] (po, 10 mg/kg), 342 min. The same molecule gave a bioavailability in data set [1] (po, 10 mg/kg) of 14.6%.

In “in vivo” (iv, 2 mg/kg), `C#Cc1c(F)ccc2cc(N)cc(-c3ncc4c(N5C[C@H]6CC[C@@H](C5)N6)nc(OC[C@@]56CCCN5C/C(=C\F)C6)nc4c3F)c12` [Reference Compound 4, 4-(4-((1R,5S)-3,8-diazabicyclo [3.2.1]octan-3-yl)-8-fluoro-2-(((S,Z)-2-(fluoromethylene)tetrahydro-1H-pyrrolizin-7a(5H)-yl)methoxy)pyrido[4,3-d]pyrimidin-7-yl)-5-ethynyl-6-fluoronaphthalen-2-amine] showed an AUC of 163 ng·h/mL, a Cmax of 104 ng/mL and a half-life of 504 min. In “in vivo” (po, 10 mg/kg), the AUC turned out to be 52.8 ng·h/mL, the maximum concentration (Cmax) turned out to be 14.8 ng/mL, the bioavailability was found to be 6.5% and the half-life was 276 min.

Regarding `[2H]C([2H])([2H])C([2H])([2H])[C@@]12CC[C@@H](CN(c3nc(OC[C@@]45CCCN4C/C(=C\F)C5)nc4c(F)c(-c5cc(O)cc6ccc(F)c(C#C)c56)ncc34)C1)N2` [Example 71, 4-(4-((1R,5S)-1-(ethyl-d5)-3,8-diazabicyclo[3.2.1]octan-3-yl)-8-fluoro-2-(((S,Z)-2-(fluoromethylene)tetrahydro-1H-pyrrolizin-7a(5H)-yl)methoxy)pyrido[4,3-d]pyrimidin-7-yl)-5-ethynyl-6-fluoronaphthalen-2-ol], the 50% inhibitory concentration (IC50) at KRAS^G12D/cRAF came out at 5.6 nM; in the data set on HPAC, 2.3 nM; in the data set on LS513, 4.1 nM; in the data set on AsPC-1 (Homo sapiens, ASPC1, 96 h), 16.7 nM; in the data set on AGS (Homo sapiens, AGS, 96 h), 1.4 nM. For the same molecule, the area under the curve (AUC) is 497 ng·h/mL in data set [1] (iv, 2 mg/kg) and 1020 ng·h/mL in data set [1] (po, 10 mg/kg). Moreover, the Cmax in data set [1] (iv, 2 mg/kg) amounted to 638 ng/mL; in data set [1] (po, 10 mg/kg), 461 ng/mL. The half-life in data set [1] (iv, 2 mg/kg) was 396 min; in data set [1] (po, 10 mg/kg) it was 294 min. The same molecule yielded a bioavailability in data set [1] (po, 10 mg/kg) of 41.1%.

Consider `[2H]C([2H])([2H])C([2H])([2H])[C@@]12CC[C@@H](CN(c3nc(OC[C@@]45CCCN4C/C(=C\F)C5)nc4c(F)c(-c5cc(N)cc6ccc(F)c(C#C)c56)ncc34)C1)N2` [Example 137, 4-(4-((1R,5S)-1-(ethyl-d5)-3,8-diazabicyclo[3.2.1]octan-3-yl)-8-fluoro-2-(((S,Z)-2-(fluoromethylene)tetrahydro-1H-pyrrolizin-7a(5H)-yl)methoxy)pyrido [4,3-d]pyrimidin-7-yl)-5-ethynyl-6-fluoronaphthalen-2-amine], for which the IC50 turned out to be 9.5 nM on KRAS^G12D/cRAF; 11.7 nM in the data set with HPAC; 14.4 nM in the data set on LS513; 37.6 nM in the data set on AsPC-1 (Homo sapiens, ASPC1, 96 h); 9.4 nM in the data set on AGS (Homo sapiens, AGS, 96 h). For the same molecule, the AUC in data set [1] (iv, 2 mg/kg) came to 775 ng·h/mL; in data set [1] (po, 10 mg/kg), 1880 ng·h/mL. In addition, the Cmax in data set [1] (iv, 2 mg/kg) is 467 ng/mL; in data set [1] (po, 10 mg/kg) it was 298 ng/mL. The half-life in data set [1] (iv, 2 mg/kg) is 354 min; in data set [1] (po, 10 mg/kg), 174 min. The molecule further registered a bioavailability in data set [1] (po, 10 mg/kg) of 48.6%.
